Like-named read-outs stand apart in the source and are kept apart here.
What was measured:
CHO cell cultures [1] = format: cell-based, Chinese hamster
Description: (§1) MATERIALS AND METHODS Cells.-Cultures of the established pseudo- diploid BHK21 Syrian hamster fibroblast line, and of the established pseudodiploid CHO Chinese hamster ovary fibroblast line were grown at 37?C as monolayers, in Eagle's minimal essential medium supplemented with 10% calf serum. Cultures in glass Petri dishes were maintained in a humidified 5% C02 atmosphere. […] Cell growth was estimated on the basis of the nucleic-acid content (RNA+ DNA) of each culture, deter- mined 5 days after seeding, when controls became confluent. To this purpose nucleotides and nucleic acids were sequentially extracted by differential hydrolyses with perchloric acid (PCA): soluble nucleotides of the intracellular pool were extracted with 5% PCA at 4?C for 30 min, RNA was hydrolysed with 10%/ PCA at 37?C for 1 h, and DNA was hydrolysed with 10% PCA at 70?C for 2 h. Soluble nucleotides and RNA were measured by UV absorption at 260 nm, DNA was measured at 268 nm, with a Hitachi 200-20 double-beam spectrophotometer. In order to label nucleic acids, the cultures were incu- bated with tritiated nucleosides (Radio- chemical Centre, Amersham, England): thy- midine-6-H3 ([3H]-TdR; 2 Ci/mM) and uridine-5-H3 ([3H]-UR; 2-5 Ci/mM) were used at the concentration of 2 µCi/ml. After labelling, nucleotides and nucleic acids were extracted and determined as above, and the radioactivity of liquid samples (0-5 ml) of the different fractions was counted in a Packard Tri-Carb 2425 scintillation counter, using 10 ml of Bray's solution. As stated else- where (Levis et al., 1978a, b) the extraction procedure with PCA allows both quantitative determinations and radioactivity counting of different fractions (soluble nucleotides, RNA and DNA) obtained from the same culture. […] The medium was not changed until the 8th day, when the plates were stained with acetic gentian violet, and scored for survivors. All colonies visible to the naked eye were counted as survivors. Chromosome preparations.-Suspensions of CHO cells were prepared by trypsinization of log-phase cultures and diluted with growth medium in 100mm Petri plates. Each plate received about 8 x 10^5 cells in 10 ml of medium, which was changed 24 h after seeding. At this time 3 x 10^-5 M bromodeoxyuridine (BUdR, Sigma, St Louis, Mo., U.S.A.) was added and the cells were allowed to incor- porate the analogue for two division cycles (30 h). […] The medium was not changed until the cells were collected 30 h later. During the last 4 h of treatment, 0 4 Hg/ml of colchicine (Merck, Darmstadt, Germany) were added. At the end of treatment, metaphase cells were dislodged by gently pipetting the overlaying medium and collected by centrifuging the suspension at 900 rev/min for 5 min. The cell pellet was suspended in 5 ml hypotonic buffer (10% sodium citrate) at 37?C for 10 min and fixed in ethanol/acetic acid (3/1). Fixed cells were heated at 89?C for 10 min in IM NaH2PO4 (pH 8) and stained with Giemsa (Korenberg & Freedlender, 1974). […] Chromium compounds and cell treatments.- Hexavalent chromium (Cr6+) was tested as K2Cr207 (potassium dichromate), K2CrO4 (potassium chromate) and Na2CrO4.4H20 (sodium chromate) (Mallinckrodt, St Louis, Mo., U.S.A.), as Na2Cr2O7.2H20 (sodium dichromate) (Riedel De Haen, Hannover, Germany), as CrO3 (chromic acid) (Merck, Darmstadt, Germany), and as CaCrO4 (cal- cium chromate) (BDH, Poole, England).

BHK cells = conditions: chronic exposure
Description: as §1

CHO cells [2] = conditions: 30 h, 1.0 ug/ml Cr6+
Description: as §1

CHO cell cultures [3] = tested on: CHO cell cultures
Description: as §1

CHO cells [4] = experiment: CHO cell survival (macroscopic colonies); format: cell-based, Chinese hamster; conditions: seeded in presence of Cr, treated up to 8th day
Description: MATERIALS AND METHODS Cells.-Cultures of the established pseudo- diploid BHK21 Syrian hamster fibroblast line, and of the established pseudodiploid CHO Chinese hamster ovary fibroblast line were grown at 37?C as monolayers, in Eagle's minimal essential medium supplemented with 10% calf serum. Cultures in glass Petri dishes were maintained in a humidified 5% C02 atmosphere. […] Cell growth was estimated on the basis of the nucleic-acid content (RNA+ DNA) of each culture, deter- mined 5 days after seeding, when controls became confluent. […] Soluble nucleotides and RNA were measured by UV absorption at 260 nm, DNA was measured at 268 nm, with a Hitachi 200-20 double-beam spectrophotometer. […] After labelling, nucleotides and nucleic acids were extracted and determined as above, and the radioactivity of liquid samples (0-5 ml) of the different fractions was counted in a Packard Tri-Carb 2425 scintillation counter, using 10 ml of Bray's solution. As stated else- where (Levis et al., 1978a, b) the extraction procedure with PCA allows both quantitative determinations and radioactivity counting of different fractions (soluble nucleotides, RNA and DNA) obtained from the same culture. […] The medium was not changed until the 8th day, when the plates were stained with acetic gentian violet, and scored for survivors. All colonies visible to the naked eye were counted as survivors. […]

Structure (SMILES): [Cl][Cr]([Cl])[Cl] [CrCl3, chromium chloride]
- Cell growth (%) (CHO cell cultures [1]; 5 days in presence of compound, [Cr] 262.0 ug/ml): 61%
- cytotoxic action on cell growth (BHK cells; even at 300 tg/ml Cr3+ (maximum solubility in complete growth medium)): little or no cytotoxic action

Structure (SMILES): [K+].[K+].[O]=[Cr](=[O])([O-])[O][Cr](=[O])(=[O])[O-] [K2Cr2O7, potassium dichromate]
- Cell growth (%) (CHO cell cultures [1]): 4%

Structure (SMILES): O=S(=O)([O-])[O-].O=S(=O)([O-])[O-].[Cr+3].[K+] [CrK(SO4)2, chromium potassium sulphate]
- Cell growth (%) (CHO cell cultures [1]; 5 days in presence of compound, [Cr] 209.0 ug/ml): 62%
- RNA/DNA (CHO cell cultures [1]; 5 days, [Cr] 209.0 ug/ml): 1-4
- cytotoxic action on cell growth (BHK cells): weakly cytotoxic

Structure (SMILES): [Na+].[Na+].[O]=[Cr](=[O])([O-])[O][Cr](=[O])(=[O])[O-] [Na2Cr2O7, sodium dichromate]
- Cell growth (%) (CHO cell cultures [1]): 3%
- RNA/DNA (CHO cell cultures [1]): 6-9
- increase of chromosome aberrations (CHO cells [2]): about 10 fold

Structure (SMILES): [K+].[K+].[O]=[Cr](=[O])([O-])[O-] [K2CrO4, potassium chromate]
- Cell growth (%) (CHO cell cultures [1]): 5%
- Sister chromatid exchanges per chromosome (CHO cell cultures [3]): 0.50 + 0-01
- Sister chromatid exchanges per metaphase (CHO cell cultures [3]): 9-80 + 0-31

Structure (SMILES): [Ca+2].[O]=[Cr](=[O])([O-])[O-] [CaCrO4, calcium chromate]
- Cell growth (%) (CHO cell cultures [1]): 1%
- RNA/DNA (CHO cell cultures [1]): 4.8

Structure (SMILES): CC(=O)[O-].CC(=O)[O-].CC(=O)[O-].[Cr+3] [Cr(COOCH3)3, chromium acetate]
- 50% lethal dose (LD50) (CHO cells [4]): 150 µg/mL
- Cell growth (%) (CHO cell cultures [1]; 5 days in presence of compound, [Cr] 312.0 ug/ml): 1%
- cytotoxic action on cell growth (BHK cells): weakly cytotoxic

Structure (SMILES): [Na+].[Na+].[O]=[Cr](=[O])([O-])[O-] [Na2CrO4, sodium chromate]
- Cell growth (%) (CHO cell cultures [1]): 6%
- Sister chromatid exchanges per chromosome (CHO cell cultures [3]): 059 + 0-20
- Sister chromatid exchanges per metaphase (CHO cell cultures [3]): 10-62 + 0-33

Structure (SMILES): [O]=[Cr](=[O])=[O] [CrO3, chromic acid]
- Cell growth (%) (CHO cell cultures [1]): 2%
